Measured values published in publication PMC11167041, “Purification, characterization and three-dimensional structure prediction of multicopper oxidase Laccases from Trichoderma lixii FLU1 and Talaromyces pinophilus FLU12” (Scientific Reports, 2024).
Where two headings read alike, the source gives them in different places. One block for each molecule: values may come before it.

Experiments:
[1] = tested on: T1, Laccase from Trichoderma lixii FLU1 (TlFLU1); test: spectrophotometric oxidation assay, […] nm, Michaelis-Menten fit; type: biochemical; details: 50 mM acetate buffer pH 5, 30 °C; substrate varied 1-5 mM
T1 construct: native extracellular enzyme purified from culture; monomer, 44 kDa (SDS-PAGE)

[2] = tested on: T2, Laccase from Talaromyces pinophilus FLU12 (TpFLU12); test: as above; type: biochemical; details: 50 mM acetate buffer pH 7, 50 °C; substrate varied 1-5 mM
T2 construct: native extracellular enzyme purified from culture

[3] = tested on: T1, Laccase from Trichoderma lixii FLU1 (TlFLU1); test: as above; type: biochemical; details: 50 mM acetate buffer pH 5, 30 °C; substrate varied 1-5 mM; remark: listed apart in the source
[4] = tested on: T1, Laccase from Trichoderma lixii FLU1 (TlFLU1); test: as above; type: biochemical; details: 50 mM acetate buffer pH 5, 30 °C; substrate varied 1-5 mM; remark: listed apart in the source
[5] = tested on: Laccase from Trichoderma lixii FLU1 (TlFLU1); details: 50 mM acetate buffer pH 5, 30 °C; substrate varied 1-5 mM
[6] = tested on: T2, Laccase from Talaromyces pinophilus FLU12 (TpFLU12); test: spectrophotometric oxidation assay, […] nm, Michaelis-Menten fit; type: biochemical; details: 50 mM acetate buffer pH 7, 50 °C; substrate varied 1-5 mM; remark: listed apart in the source

Km [1]: 13 µM
SMILES: COc1cccc(OC)c1O [2,6-DMP, 2,6-dimethoxyphenol]

Km [2]: 38.6 µM
Km [3]: 43 µM
SMILES: O=C(O)/C=C/c1ccc(O)c(O)c1 [caffeic acid]

Km [4]: 12.7 µM
SMILES: COc1ccccc1O [guaiacol]

Km [5]: 10.8 µM
Km [6]: 8.2 µM
SMILES: CCn1c(=NN=c2sc3cc(S(=O)(=O)O)ccc3n2CC)sc2cc(S(=O)(=O)O)ccc21 [ABTS, 2,2-azino-bis-(3-ethyl-benzothiazoline-6-sulphonic acid)]
